Values of other authors as cited in patent publication US20200353057A1, “REDUCING IMMUNOGENICITY TO PEGLOTICASE” (Horizon Pharma Rheumatology LLC, priority 2019, published 2020).
Read-outs that look alike come from different tables or passages of the source.

Columns and labels:
[1] = for Detectable in urine: after 8 hours; for Bound to serum proteins: in vivo
[2] = system: renal transplant and RA patients
[3] = system: patients treated with allopurinol; conditions: human, in vivo
[4] = system: organ transplant recipients; conditions: in vivo
[5] = system: subjects with refractory gout; conditions: doses of 4 to 12 mg, within 24 to 72 hours, from 11.1±0.6 mg/dL
[6] = system: patients with refractory chronic gout
[7] = diluted in infusion bags
[8] = system: patients with refractory chronic gout; conditions: Phase 2 program
[9] = system: patients with lupus nephritis; conditions: in vivo

In the case of COc1c(C)c2c(c(O)c1C/C=C(\C)CCC(=O)OCCN1CCOCC1)C(=O)OC2 [Mycophenolate mofetil, 2-morpholinoethyl (E)-6-(1,3-dihydro4-hydroxy-6-methoxy-7-methyl-3-oxo-5-isobenzofuranyl)-4-methyl-4-hexenoate], the Detectable in urine [1] is listed as “no mycophenolate mofetil or mercaptopurine is detectable in urine”, the “Bound to serum proteins” value [1] is listed as 30% and the “Absorption following oral administration” value ([1]; oral) is listed as “well absorbed”. The Teratogenic effects (rabbits) was “teratogenic effects”, the Teratogenic effects (rats) was “teratogenic effects” and the “Increased susceptibility to infection” value ([2]; RA) was less than 1%. For the same molecule, the Leukopenia ([2]; RA) was 28%, the Nausea and vomiting ([2]; RA) was 12% and the “Increased susceptibility to infection” value ([2]; renal transplant) was 20%. For the same molecule, the Leukopenia ([2]; renal transplant) was greater than 50%, the “Neoplasia (lymphoma)” value ([2]; renal transplant) was 0.5% and the “Neoplasia (other than lymphoma)” value ([2]; renal transplant) was 3%.
In the case of Oc1ncnc2[nH]ncc12 [allopurinol], the “Patients who develop allergic reactions” value [3] is given as “Approximately 2%” and the “Patients with severe hypersensitivity syndrome” value [3] is given as “about 0.4%”.
For Sc1ncnc2nc[nH]c12 [mercaptopurine, 6-mercaptopurine], the Detectable in urine [1] is given as “no mycophenolate mofetil or mercaptopurine is detectable in urine” and the “Bound to serum proteins” value [1] is given as 30%.
For pegloticase, the “Organ transplant recipients with a sustained high titer Ab response to pegloticase” value [4] is listed as “one out of seven”, the “pUAc (plasma urate concentration) after dosing, mean±SD” value [5] is listed as 1.0±0.5 mg/dL and the “Patients maintaining a response, antibody titer exceeding 1:2430 at any time” value ([6]; 7 of 65 patients, another study) is listed as 10.8%. For the same molecule, the “Patients with IRs in whom loss of response (return to SUA ≥6 mg/dL) preceded the first IR” value ([6]; 20/21) was 95%, the “Patients with titers exceeding 1:2430 who developed IRs” value ([6]; 31 of 52) was 60% and the “Patients maintaining a response, never had an antibody titer above 1:2430” value ([6]; 58/65, another study) was 89.2%. The “Patients who developed high titer anti-pegloticase antibodies and subsequently lost response” value ([6]; 69 of 169 patients, one study) was 41%, the “Occurrence of most common adverse reactions (gout flares, infusion reactions, nausea, contusion or ecchymosis, nasopharyngitis, constipation, chest pain, anaphylaxis, vomiting)” value ([6]; KXX-treated patients) was no less than 5% and the “Occurrence of ecchymoses, sore throat, constipation, chest pain, and vomiting” value ([6]; patients treated with pegloticase) was “at least 5%”. For the same molecule, the “Incidence of infusion-related reactions” value ([6]; pooled Phase 3, 8 mg biweekly dosing) was 26%, the “Incidence of infusion-related reactions” value ([6]; pooled Phase 3, 8 mg every-4-week dosing regimen) was 40% and the Anaphylaxis frequency ([6]; pre-marketing controlled clinical trials) was 6.5%. For the same molecule, the Infusion reactions reported ([6]; pre-marketing controlled clinical trials, 8 mg every 2 weeks) was 26%, the “Participants with high antibody titers who maintained a response (serum urate <6 mg/dL)” value ([6]; second study) was 1 of 52 and the “Participants with high titers who developed IR” value ([6]; second study) was 60%. The “Stability of diluted solution” value ([7]; 2° C. to 8° C.) was 4 h, the “Stability of diluted solution” value ([7]; room temperature (20° C. to 25° C.)) was 4 h and the Dose-response plateau dose [8] was 12 mg. For the same molecule, the Minimally effective dose [8] was 4 mg and the “Safe and optimally effective dose” value [8] was 8 mg.
In the case of “rituximab: biologic arm of a lupus nephritis RCT on top of MMF and glucocorticoids”, the “Rate of serious infections” value [9] is given as 16.6 /100 patient-years.
